According to US12522583B2, “Benzimidazole derivatives and aza-benzimidazole derivatives as Janus kinase 2 inhibitors and uses thereof” (Dana-Farber Cancer Institute, Inc., priority 2018, dated 2026):

Experiments:
Assay in all cases: KINOMEscan
Format in all cases: binding
[1] = biological target: ABL1(T315I)-phosphorylated (Homo sapiens (Human), UniProt P00519, T315I); details: read-out: percent control
Excerpt: (§1) Example 2. In Vitro Kinase Selectivity Profiling of the Compounds of the Present Disclosure

ABL1-nonphosphorylated = ABL1-nonphosphorylated (Homo sapiens (Human), UniProt P00519); details: read-out: percent control
Excerpt: as §1

AMPK-alpha1 = AMPK-alpha1 (Homo sapiens (Human), UniProt Q13131); details: read-out: percent control
Excerpt: as §1

BMPR1B = BMPR1B (Homo sapiens (Human), UniProt O00238); details: read-out: percent control
Excerpt: as §1

CAMK1B = CAMK1B (Homo sapiens (Human), UniProt Q6P2M8); details: read-out: percent control
Excerpt: as §1

CAMKK2 = CAMKK2 (Homo sapiens (Human), UniProt Q96RR4); details: read-out: percent control
Excerpt: as §1

CSNK1G2 = CSNK1G2 (Homo sapiens (Human), UniProt P78368); details: read-out: percent control
Excerpt: as §1

DRAK2 = DRAK2 (Homo sapiens (Human), UniProt O94768); details: read-out: percent control
Excerpt: as §1

DYRK1B = DYRK1B (Homo sapiens (Human), UniProt Q9Y463); details: read-out: percent control
Excerpt: as §1

EGFR = EGFR (Homo sapiens (Human), UniProt P00533); details: read-out: percent control
Excerpt: as §1

EPHA5 = EPHA5 (Homo sapiens (Human), UniProt P54756); details: read-out: percent control
Excerpt: as §1

EPHB2 = EPHB2 (Homo sapiens (Human), UniProt P29323); details: read-out: percent control
Excerpt: as §1

EPHB3 = EPHB3 (Homo sapiens (Human), UniProt P54753); details: read-out: percent control
Excerpt: as §1

FLT3(D835Y) = FLT3(D835Y) (Homo sapiens (Human), UniProt P36888, D835Y); details: read-out: percent control
Excerpt: as §1

FLT3(ITD, D835V) = details: 1 μM
Excerpt: as §1

FLT3(R834Q) = FLT3(R834Q) (Homo sapiens (Human), UniProt P36888, R834Q); details: read-out: percent control
Excerpt: as §1

KIT(A829P) = KIT(A829P) (Homo sapiens (Human), UniProt P10721, A829P); details: read-out: percent control
Excerpt: as §1

LATS2 = LATS2 (Homo sapiens (Human), UniProt Q9NRM7); details: read-out: percent control
Excerpt: as §1

MAP3K1 = MAP3K1 (Homo sapiens (Human), UniProt Q13233); details: read-out: percent control
Excerpt: as §1

MARK2 = MARK2 (Homo sapiens (Human), UniProt Q7KZI7); details: read-out: percent control
Excerpt: as §1

MLK3 = MLK3 (Homo sapiens (Human), UniProt Q16584); details: read-out: percent control
Excerpt: as §1

MST1 = MST1 (Homo sapiens (Human), UniProt Q13043); details: read-out: percent control
Excerpt: as §1

MST4 = MST4 (Homo sapiens (Human), UniProt Q9P289); details: read-out: percent control
Excerpt: as §1

MYLK = MYLK (Homo sapiens (Human), UniProt Q15746); details: read-out: percent control
Excerpt: as §1

NEK1 = NEK1 (Homo sapiens (Human), UniProt Q96PY6); details: read-out: percent control
Excerpt: as §1

NEK10 = NEK10 (Homo sapiens (Human), UniProt Q6ZWH5); details: read-out: percent control
Excerpt: as §1

NEK9 = NEK9 (Homo sapiens (Human), UniProt Q8TD19); details: read-out: percent control
Excerpt: as §1

NIM1 = NIM1 (Homo sapiens (Human), UniProt Q8IY84); details: read-out: percent control
Excerpt: as §1

PIK3CA(C420R) = PIK3CA(C420R) (Homo sapiens (Human), UniProt P42336, C420R); details: read-out: percent control
Excerpt: as §1

PIK3CA(E545K) = PIK3CA(E545K) (Homo sapiens (Human), UniProt P42336, E545K); details: read-out: percent control
Excerpt: as §1

PRKR = PRKR (Homo sapiens (Human), UniProt P19525); details: read-out: percent control
Excerpt: as §1

RET = RET (Homo sapiens (Human), UniProt P07949); details: read-out: percent control
Excerpt: as §1

RET(V804M) = RET(V804M) (Homo sapiens (Human), UniProt P07949, V804M); details: read-out: percent control
Excerpt: as §1

RIPK2 = RIPK2 (Homo sapiens (Human), UniProt O43353); details: read-out: percent control
Excerpt: as §1

[2] = biological target: RPS6KA4(Kin.Dom.1-terminal) (Homo sapiens (Human), UniProt O75676); details: read-out: percent control
Excerpt: as §1

[3] = biological target: RSK1(Kin.Dom.1-N-terminal) (Homo sapiens (Human), UniProt Q15418); details: read-out: percent control
Excerpt: as §1

TRKC = TRKC (Homo sapiens (Human), UniProt Q16288); details: read-out: percent control
Excerpt: as §1

ULK3 = ULK3 (Homo sapiens (Human), UniProt Q6PHR2); details: read-out: percent control
Excerpt: as §1

WEE1 = WEE1 (Homo sapiens (Human), UniProt P30291); details: read-out: percent control
Excerpt: as §1

YSK4 = YSK4 (Homo sapiens (Human), UniProt Q56UN5); details: read-out: percent control
Excerpt: as §1

Sequence of EPHB3 (P54753 34-998): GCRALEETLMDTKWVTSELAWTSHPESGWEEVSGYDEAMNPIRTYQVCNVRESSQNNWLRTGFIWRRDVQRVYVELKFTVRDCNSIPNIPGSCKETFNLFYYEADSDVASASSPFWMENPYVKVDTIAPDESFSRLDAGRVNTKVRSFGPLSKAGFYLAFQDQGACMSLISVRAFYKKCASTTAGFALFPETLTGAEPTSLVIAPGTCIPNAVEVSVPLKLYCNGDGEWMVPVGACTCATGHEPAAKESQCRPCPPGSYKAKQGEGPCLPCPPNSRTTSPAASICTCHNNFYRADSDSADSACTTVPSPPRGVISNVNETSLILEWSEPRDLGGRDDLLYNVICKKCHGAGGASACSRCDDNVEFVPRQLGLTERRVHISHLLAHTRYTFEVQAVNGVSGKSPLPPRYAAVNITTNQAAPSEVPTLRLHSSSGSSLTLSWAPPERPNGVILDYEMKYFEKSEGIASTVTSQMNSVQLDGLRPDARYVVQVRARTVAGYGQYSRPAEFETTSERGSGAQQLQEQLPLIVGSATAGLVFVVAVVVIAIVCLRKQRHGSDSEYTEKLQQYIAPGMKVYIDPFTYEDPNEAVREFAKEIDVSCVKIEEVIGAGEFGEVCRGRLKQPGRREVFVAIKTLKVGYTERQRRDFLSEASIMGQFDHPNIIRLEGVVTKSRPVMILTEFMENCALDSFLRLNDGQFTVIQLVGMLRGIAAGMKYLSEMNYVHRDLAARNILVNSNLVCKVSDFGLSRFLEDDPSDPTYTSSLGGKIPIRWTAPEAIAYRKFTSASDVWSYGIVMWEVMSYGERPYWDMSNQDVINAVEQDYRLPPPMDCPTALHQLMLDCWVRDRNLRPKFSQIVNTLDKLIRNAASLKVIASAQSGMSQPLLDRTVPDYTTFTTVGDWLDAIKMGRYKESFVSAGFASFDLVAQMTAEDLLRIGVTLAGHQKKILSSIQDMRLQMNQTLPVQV
Sequence of CSNK1G2 (P78368 whole entry): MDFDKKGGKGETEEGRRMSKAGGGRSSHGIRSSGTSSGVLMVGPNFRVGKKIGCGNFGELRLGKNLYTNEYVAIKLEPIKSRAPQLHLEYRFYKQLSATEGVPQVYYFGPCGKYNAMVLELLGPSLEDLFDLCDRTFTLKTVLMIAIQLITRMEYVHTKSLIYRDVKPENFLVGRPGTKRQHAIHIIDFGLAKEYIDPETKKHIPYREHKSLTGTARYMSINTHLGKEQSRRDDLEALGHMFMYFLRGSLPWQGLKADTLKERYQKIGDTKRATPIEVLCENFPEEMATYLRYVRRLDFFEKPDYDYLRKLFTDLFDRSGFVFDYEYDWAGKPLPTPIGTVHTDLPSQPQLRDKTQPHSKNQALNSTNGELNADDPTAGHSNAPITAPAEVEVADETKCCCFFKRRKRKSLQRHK
Sequence of RPS6KA4(Kin.Dom.1-terminal) (O75676 33-301 limits assumed): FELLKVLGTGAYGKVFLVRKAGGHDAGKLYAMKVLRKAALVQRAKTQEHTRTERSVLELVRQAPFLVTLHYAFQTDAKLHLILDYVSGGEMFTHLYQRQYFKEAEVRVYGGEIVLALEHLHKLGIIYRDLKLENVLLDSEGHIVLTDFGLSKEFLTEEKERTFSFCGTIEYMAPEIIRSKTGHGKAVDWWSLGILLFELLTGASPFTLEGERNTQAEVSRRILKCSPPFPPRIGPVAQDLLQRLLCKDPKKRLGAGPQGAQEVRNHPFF
Sequence of RIPK2 (O43353 whole entry): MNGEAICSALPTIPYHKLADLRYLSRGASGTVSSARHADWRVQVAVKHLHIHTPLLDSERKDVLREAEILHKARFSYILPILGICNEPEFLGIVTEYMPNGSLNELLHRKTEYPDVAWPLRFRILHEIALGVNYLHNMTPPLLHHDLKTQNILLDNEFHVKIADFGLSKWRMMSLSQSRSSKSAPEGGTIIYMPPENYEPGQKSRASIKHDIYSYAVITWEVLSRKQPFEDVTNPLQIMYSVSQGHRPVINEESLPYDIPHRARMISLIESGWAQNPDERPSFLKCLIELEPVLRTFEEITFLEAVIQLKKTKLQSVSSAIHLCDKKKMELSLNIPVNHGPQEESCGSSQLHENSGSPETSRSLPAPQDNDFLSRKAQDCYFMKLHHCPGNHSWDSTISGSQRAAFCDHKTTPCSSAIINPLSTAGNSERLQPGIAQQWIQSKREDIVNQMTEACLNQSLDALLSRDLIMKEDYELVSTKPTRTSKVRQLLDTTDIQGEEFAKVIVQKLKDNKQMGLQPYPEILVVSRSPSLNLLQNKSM
Sequence of EPHB2 (P29323 19-1055): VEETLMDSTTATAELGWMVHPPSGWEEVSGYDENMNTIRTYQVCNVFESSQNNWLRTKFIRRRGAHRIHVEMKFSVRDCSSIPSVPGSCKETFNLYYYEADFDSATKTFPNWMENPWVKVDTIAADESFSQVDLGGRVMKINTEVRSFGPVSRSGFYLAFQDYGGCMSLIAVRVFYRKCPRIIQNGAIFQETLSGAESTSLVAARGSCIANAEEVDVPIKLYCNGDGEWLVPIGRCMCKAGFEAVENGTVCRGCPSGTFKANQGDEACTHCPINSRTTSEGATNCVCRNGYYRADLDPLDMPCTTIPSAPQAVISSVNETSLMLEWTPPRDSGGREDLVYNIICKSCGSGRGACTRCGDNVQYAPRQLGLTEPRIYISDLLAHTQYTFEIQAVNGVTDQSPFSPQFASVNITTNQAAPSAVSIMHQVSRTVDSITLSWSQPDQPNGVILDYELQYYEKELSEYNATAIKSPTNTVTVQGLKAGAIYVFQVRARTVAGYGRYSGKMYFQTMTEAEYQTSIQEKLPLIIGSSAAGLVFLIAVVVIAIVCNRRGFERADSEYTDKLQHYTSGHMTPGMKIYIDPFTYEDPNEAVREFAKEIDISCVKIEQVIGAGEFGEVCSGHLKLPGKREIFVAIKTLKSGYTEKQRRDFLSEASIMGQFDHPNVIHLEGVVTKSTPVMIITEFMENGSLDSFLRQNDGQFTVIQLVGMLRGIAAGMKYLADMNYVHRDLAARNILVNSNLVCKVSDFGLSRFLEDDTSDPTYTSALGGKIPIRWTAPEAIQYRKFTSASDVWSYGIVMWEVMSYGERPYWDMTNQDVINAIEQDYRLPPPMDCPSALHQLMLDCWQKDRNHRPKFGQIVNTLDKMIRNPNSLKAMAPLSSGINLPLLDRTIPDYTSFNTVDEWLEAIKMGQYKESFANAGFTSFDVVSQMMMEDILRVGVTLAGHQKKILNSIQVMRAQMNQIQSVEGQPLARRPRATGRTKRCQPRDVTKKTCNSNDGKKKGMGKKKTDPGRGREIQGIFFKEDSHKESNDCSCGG
Sequence of RSK1(Kin.Dom.1-N-terminal) (Q15418 62-321 limits assumed): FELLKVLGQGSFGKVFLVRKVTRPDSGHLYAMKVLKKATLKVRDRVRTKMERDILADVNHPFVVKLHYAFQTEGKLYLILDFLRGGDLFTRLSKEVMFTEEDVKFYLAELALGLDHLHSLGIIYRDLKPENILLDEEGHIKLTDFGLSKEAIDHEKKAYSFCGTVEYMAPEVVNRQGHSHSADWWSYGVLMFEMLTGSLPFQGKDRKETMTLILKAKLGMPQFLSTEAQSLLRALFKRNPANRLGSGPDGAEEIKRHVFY
Sequence of DYRK1B (Q9Y463 whole entry): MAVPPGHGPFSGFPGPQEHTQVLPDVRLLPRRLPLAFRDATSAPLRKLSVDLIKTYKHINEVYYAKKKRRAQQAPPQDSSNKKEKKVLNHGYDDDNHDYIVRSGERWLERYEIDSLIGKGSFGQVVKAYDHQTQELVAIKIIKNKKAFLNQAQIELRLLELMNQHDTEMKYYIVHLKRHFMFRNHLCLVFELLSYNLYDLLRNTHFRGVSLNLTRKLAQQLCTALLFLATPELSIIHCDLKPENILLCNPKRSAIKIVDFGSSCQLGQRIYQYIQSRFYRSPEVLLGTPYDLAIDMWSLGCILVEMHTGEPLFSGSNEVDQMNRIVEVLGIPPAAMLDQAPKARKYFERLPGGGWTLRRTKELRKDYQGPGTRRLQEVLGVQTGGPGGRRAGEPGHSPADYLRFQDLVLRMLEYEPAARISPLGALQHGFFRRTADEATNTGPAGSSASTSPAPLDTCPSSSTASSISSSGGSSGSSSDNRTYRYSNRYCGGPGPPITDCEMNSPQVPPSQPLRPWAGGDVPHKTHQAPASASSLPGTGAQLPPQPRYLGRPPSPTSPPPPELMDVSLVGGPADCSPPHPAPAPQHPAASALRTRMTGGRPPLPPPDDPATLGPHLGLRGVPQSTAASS
Sequence of MARK2 (Q7KZI7 whole entry): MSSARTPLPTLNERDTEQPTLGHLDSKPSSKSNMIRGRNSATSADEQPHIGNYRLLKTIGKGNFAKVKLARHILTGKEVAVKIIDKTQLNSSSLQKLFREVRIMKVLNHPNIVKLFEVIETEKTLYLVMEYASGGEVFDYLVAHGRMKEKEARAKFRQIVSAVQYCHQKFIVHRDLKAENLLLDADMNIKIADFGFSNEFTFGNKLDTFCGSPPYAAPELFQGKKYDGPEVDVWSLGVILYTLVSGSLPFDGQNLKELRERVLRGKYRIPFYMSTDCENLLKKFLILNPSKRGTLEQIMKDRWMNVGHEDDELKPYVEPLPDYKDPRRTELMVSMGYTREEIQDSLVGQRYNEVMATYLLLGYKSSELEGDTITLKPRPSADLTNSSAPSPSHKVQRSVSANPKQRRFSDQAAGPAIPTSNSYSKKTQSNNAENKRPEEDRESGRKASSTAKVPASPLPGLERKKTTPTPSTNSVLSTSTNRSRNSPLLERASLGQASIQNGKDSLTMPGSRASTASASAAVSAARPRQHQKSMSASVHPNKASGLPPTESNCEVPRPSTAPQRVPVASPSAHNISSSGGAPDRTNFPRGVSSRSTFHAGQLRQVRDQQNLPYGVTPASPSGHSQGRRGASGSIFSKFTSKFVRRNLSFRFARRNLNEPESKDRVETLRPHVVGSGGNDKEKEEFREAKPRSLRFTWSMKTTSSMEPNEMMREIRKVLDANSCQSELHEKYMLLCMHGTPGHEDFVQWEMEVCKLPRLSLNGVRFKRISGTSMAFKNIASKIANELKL

SMILES	remaining binding at 1 µM [1] [%]	remaining binding at 1 µM (ABL1-nonphosphorylated) [%]	remaining binding at 1 µM (AMPK-alpha1) [%]	remaining binding at 1 µM (BMPR1B) [%]	remaining binding at 1 µM (CAMK1B) [%]	remaining binding at 1 µM (CAMKK2) [%]	remaining binding at 1 µM (CSNK1G2) [%]	remaining binding at 1 µM (DRAK2) [%]	remaining binding at 1 µM (DYRK1B) [%]	remaining binding at 1 µM (EGFR) [%]	remaining binding at 1 µM (EPHA5) [%]	remaining binding at 1 µM (EPHB2) [%]	remaining binding at 1 µM (EPHB3) [%]	remaining binding at 1 µM (FLT3(D835Y)) [%]	percent control (FLT3(ITD, D835V)) [%]	remaining binding at 1 µM (FLT3(R834Q)) [%]	remaining binding at 1 µM (KIT(A829P)) [%]	remaining binding at 1 µM (LATS2) [%]	remaining binding at 1 µM (MAP3K1) [%]	remaining binding at 1 µM (MARK2) [%]	other results
CCN1CCN(Cc2ccc(Nc3nc4ccc(Oc5ccnc(NC(C)=O)c5)cc4n3C)cc2C(F)(F)F)CC1 [Compound I-2]	62	0.3	93	84	50	100	100	100	71	79	98	81	96	70	100	100	0	100	77	100	remaining binding at 1 µM (MLK3): 100%; remaining binding at 1 µM (MST1): 93%; remaining binding at 1 µM (MST4): 89%; remaining binding at 1 µM (MYLK): 59%; remaining binding at 1 µM (NEK1): 84%; remaining binding at 1 µM (NEK10): 100%; remaining binding at 1 µM (NEK9): 87%; remaining binding at 1 µM (NIM1): 97%; remaining binding at 1 µM (PIK3CA(C420R)): 100%; remaining binding at 1 µM (PIK3CA(E545K)): 80%; remaining binding at 1 µM (PRKR): 39%; remaining binding at 1 µM (RET): 0%; remaining binding at 1 µM (RET(V804M)): 9.9%; remaining binding at 1 µM (RIPK2): 94%; remaining binding at 1 µM [2]: 100%; remaining binding at 1 µM [3]: 100%; remaining binding at 1 µM (TRKC): 44%; remaining binding at 1 µM (ULK3): 92%; remaining binding at 1 µM (WEE1): 95%; remaining binding at 1 µM (YSK4): 51%
CCN1CCN(Cc2ccc(Nc3nc4ccc(Oc5ccnc(NC(C)=O)c5)c(C)c4n3C)cc2C(F)(F)F)CC1 [Compound I-6, N-(4-(2-(4-((4-ethylpiperazin-1-yl)methyl)-3-(trifluoromethyl)phenylamino)-1,7-dimethyl-1H-benzo[d]imidazol-6-yloxy)pyridin-2-yl)acetamide]	87	0.05	95	89	43	99	100	85	50	100	98	100	100	56	61	57	0	100	86	100	remaining binding at 1 µM (MLK3): 95%; remaining binding at 1 µM (MST1): 100%; remaining binding at 1 µM (MST4): 100%; remaining binding at 1 µM (MYLK): 91%; remaining binding at 1 µM (NEK1): 79%; remaining binding at 1 µM (NEK10): 79%; remaining binding at 1 µM (NEK9): 68%; remaining binding at 1 µM (NIM1): 93%; remaining binding at 1 µM (PIK3CA(C420R)): 99%; remaining binding at 1 µM (PIK3CA(E545K)): 97%; remaining binding at 1 µM (PRKR): 64%; remaining binding at 1 µM (RET): 0.1%; remaining binding at 1 µM (RET(V804M)): 4.5%; remaining binding at 1 µM (RIPK2): 82%; remaining binding at 1 µM [2]: 93%; remaining binding at 1 µM [3]: 99%; remaining binding at 1 µM (TRKC): 3.4%; remaining binding at 1 µM (ULK3): 79%; remaining binding at 1 µM (WEE1): 100%; remaining binding at 1 µM (YSK4): 67%
